Patent US20060211073A1, “Assay for B-Raf activity based on intrinsic MEK ATPase activity” (priority 2005, published 2006)

Molecular target: T1, phosphoMEK (activated MEK-1) (Homo sapiens, UniProt Q02750)
T1 construct: purchased Upstate (Waltham, Mass.) #14-429, lot #26232U
Assay: ATPase activity of commercially acquired phosphoMEK in the absence of B-Raf
Format: biochemical
Conditions: data not shown

T1 sequence (Q02750 whole entry): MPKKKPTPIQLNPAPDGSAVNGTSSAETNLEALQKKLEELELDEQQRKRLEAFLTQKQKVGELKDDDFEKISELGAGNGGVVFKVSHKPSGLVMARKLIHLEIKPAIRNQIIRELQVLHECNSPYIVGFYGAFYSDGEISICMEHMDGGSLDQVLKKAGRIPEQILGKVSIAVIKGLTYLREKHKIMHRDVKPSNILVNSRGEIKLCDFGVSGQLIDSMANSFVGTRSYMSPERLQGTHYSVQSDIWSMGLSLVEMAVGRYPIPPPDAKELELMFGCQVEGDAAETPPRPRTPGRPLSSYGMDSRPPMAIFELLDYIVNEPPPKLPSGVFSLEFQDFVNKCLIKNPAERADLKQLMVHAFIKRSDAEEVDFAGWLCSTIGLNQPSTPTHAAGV

Structure (SMILES): CN(C)CCOc1ccc(-c2nc(-c3ccncc3)c(-c3ccc4c(c3)CC/C4=N\O)[nH]2)cc1 [SB-590885]
- IC50: > 10 µM
